Laboratory results: patent US11590105B2, “Intrathecal administration of levetiracetam” (Sintetica S.A., priority 2019, dated 2023)

Experiment: Osmolality of various concentrations of levetiracetam in water
Format: physicochemical
Description: Sodium chloride and other halide salts that affect the tonicity of the solution are preferably omitted from the formulations and unnecessary because levetiracetam itself yields an isotonic (or slightly above isotonic) formulation in the formulations of the present invention. The following table gives the osmolality of various concentrations of levetiracetam in water: […]

In the case of `CC[C@@H](C(N)=O)N1CCCC1=O` [Levetiracetam, (−)-(S)-α-ethyl-2-oxo-1-pyrrolidine acetamide], the Osmolality (levetiracetam conc. 2.75 mg/ml in water) was 16 mOsm/kg, the Osmolality (levetiracetam conc. 45 mg/ml in water) was 262 mOsm/kg and the Osmolality (levetiracetam conc. 50 mg/ml in water) was 292 mOsm/kg. The Osmolality (levetiracetam conc. 60 mg/ml in water) was 348 mOsm/kg and the Osmolality (levetiracetam conc. 65 mg/ml in water) was 377 mOsm/kg.
